Experiments:
lambsquarters = assay: Test B pre-/postemergence herbicide test; type: in vivo, Chenopodium album; settings: for Lambsquarters plant response rating (0 to 100 scale): 0 = no effect, 100 = complete control; for Lambsquarters plant response rating (0 to 100 scale) / Plant response rating, Lambsquarters: preemergence; for Plant response rating, Lambsquarters: visual rating 0-100, 0 no effect, 100 complete control; for Lambsquarters plant response rating: postemergence, visual rating, scale 0 (no effect) to 100 (complete control)
In short: (§1)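 Seeds were planted and treated preemergence with compounds formulated in a non-phytotoxic solvent mixture containing surfactant, while plants at the 1- to 4-leaf stage (2 to 18 cm) received postemergence sprays. Flooded paddy plants were grown to the 2-leaf stage. After 13 to 15 days in a greenhouse, injury was visually rated 0–100 against untreated controls.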

morningglory = assay: Test B pre-/postemergence herbicide test; type: in vivo, Ipomoea coccinea; settings: for Morningglory plant response rating (0 to 100 scale): 0 = no effect, 100 = complete control; for Morningglory plant response rating (0 to 100 scale) / Plant response rating, Morningglory: preemergence; for Plant response rating, Morningglory: visual rating 0-100, 0 no effect, 100 complete control; for Morningglory plant response rating: postemergence, visual rating, scale 0 (no effect) to 100 (complete control)
In short: (§2)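 Formulation: non-phytotoxic solvent mix with surfactant. Timing: preemergence on seed and postemergence on 2–18 cm plants, applied concurrently. Readout after 13–15 d greenhouse: visual 0–100 control rating against controls.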

barnyardgrass [1] = assay: Test B flooded paddy test; type: in vivo, Echinochloa crus-galli; settings: 1000 g ai/ha, visual rating, scale 0 to 100 (0 no effect, 100 complete control), 13 to 15 days
In short: (§3)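 Scale 0–100: zero equals no visible effect, 100 complete control, judged by eye relative to controls. Timing: 13 to 15 days in greenhouse post-treatment. Growth stage at spraying: two leaves (paddy) or one to four leaves, 2–18 cm (postemergence).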

giant foxtail = assay: Test B pre-/postemergence herbicide test; type: in vivo, Setaria faberi; settings: for Foxtail, Giant plant response rating (0 to 100 scale): 0 = no effect, 100 = complete control; for Foxtail, Giant plant response rating (0 to 100 scale) / Plant response rating, Foxtail, Giant: preemergence; for Plant response rating, Foxtail, Giant: visual rating 0-100, 0 no effect, 100 complete control; for Foxtail, Giant plant response rating: postemergence, visual rating, scale 0 (no effect) to 100 (complete control)
In short: as §1

rice = assay: Test B flooded paddy test; type: in vivo, Oryza sativa; settings: 1000 g ai/ha, visual rating, scale 0 to 100 (0 no effect, 100 complete control), 13 to 15 days
In short: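 Visual ratings, 0 (no effect) to 100 (complete control), made versus controls after 13–15 d greenhouse. Paddy plants treated at 2-leaf stage; postemergence plants at 1- to 4-leaf stage, 2–18 cm tall.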

Surinam grass = assay: Test B pre-/postemergence herbicide test; type: in vivo, Urochloa decumbens; settings: for Surinam Grass plant response rating (0 to 100 scale): 0 = no effect, 100 = complete control; for Surinam Grass plant response rating (0 to 100 scale) / Plant response rating, Surinam Grass: preemergence; for Plant response rating, Surinam Grass: visual rating 0-100, 0 no effect, 100 complete control; for Surinam Grass plant response rating: postemergence, visual rating, scale 0 (no effect) to 100 (complete control)
In short: as §1

pigweed = assay: Test B pre-/postemergence herbicide test; type: in vivo, Amaranthus retroflexus; settings: for Pigweed plant response rating (0 to 100 scale): 0 = no effect, 100 = complete control; for Pigweed plant response rating (0 to 100 scale) / Plant response rating, Pigweed: preemergence; for Plant response rating, Pigweed: visual rating 0-100, 0 no effect, 100 complete control; for Pigweed plant response rating: postemergence, visual rating, scale 0 (no effect) to 100 (complete control)
In short: as §1

velvetleaf = assay: Test B pre-/postemergence herbicide test; type: in vivo, Abutilon theophrasti; settings: for Velvetleaf plant response rating (0 to 100 scale): 0 = no effect, 100 = complete control; for Velvetleaf plant response rating (0 to 100 scale) / Plant response rating, Velvetleaf: preemergence; for Plant response rating, Velvetleaf: visual rating 0-100, 0 no effect, 100 complete control; for Velvetleaf plant response rating: postemergence, visual rating, scale 0 (no effect) to 100 (complete control)
In short: as §1

blackgrass = assay: Test B postemergence herbicide test; type: in vivo, Alopecurus myosuroides; settings: postemergence, visual rating, scale 0 (no effect) to 100 (complete control)
In short: as §3

wheat = assay: Test B postemergence herbicide test; type: in vivo, Triticum aestivum; parameters: key to Wheat plant response rating: 0 = no effect, 100 = complete control; settings: postemergence, visual rating, scale 0 (no effect) to 100 (complete control)
In short: (§4)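 Read-out: visual comparison with controls, scored 0 to 100, where 100 means complete control and 0 no effect. Formulated chemicals were applied postemergence to plants 2–18 cm tall (1- to 4-leaf), or to flooded-paddy plants at the 2-leaf stage, then held 13 to 15 days under glass.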

large crabgrass = assay: Test B pre-/postemergence herbicide test; type: in vivo, Digitaria sanguinalis; settings: for Crabgrass, Large plant response rating (0 to 100 scale): 0 = no effect, 100 = complete control; for Crabgrass, Large plant response rating (0 to 100 scale) / Plant response rating, Crabgrass, Large: preemergence; for Plant response rating, Crabgrass, Large: visual rating 0-100, 0 no effect, 100 complete control; for Crabgrass, Large plant response rating: postemergence, visual rating, scale 0 (no effect) to 100 (complete control)
In short: as §1

cocklebur = assay: Test B pre-/postemergence herbicide test; type: in vivo, Xanthium strumarium; settings: for Cocklebur plant response rating (0 to 100 scale): 0 = no effect, 100 = complete control; for Cocklebur plant response rating (0 to 100 scale) / Plant response rating, Cocklebur: preemergence; for Plant response rating, Cocklebur: visual rating 0-100, 0 no effect, 100 complete control; for Cocklebur plant response rating: postemergence, visual rating, scale 0 (no effect) to 100 (complete control)
In short: as §2

wild oat = assay: Test B postemergence herbicide test; type: in vivo, Avena fatua; settings: postemergence, visual rating, scale 0 (no effect) to 100 (complete control)
In short: as §4

barnyardgrass [2] = assay: Test B pre-/postemergence herbicide test; type: in vivo, Echinochloa crus-galli; settings: for Barnyardgrass plant response rating (0 to 100 scale): 0 = no effect, 100 = complete control; for Barnyardgrass plant response rating (0 to 100 scale) / Plant response rating, Barnyardgrass: preemergence; for Plant response rating, Barnyardgrass: visual rating 0-100, 0 no effect, 100 complete control; for Barnyardgrass plant response rating: postemergence, visual rating, scale 0 (no effect) to 100 (complete control)
In short: as §2

[3] = system: small flower umbrella sedge; assay: Test B flooded paddy test; type: in vivo, Cyperus difformis; settings: 1000 g ai/ha, visual rating, scale 0 to 100 (0 no effect, 100 complete control), 13 to 15 days
In short: as §3

CCc1nc(C(C)(C)C)sc1C(=O)Nc1cccc(C(=O)N(CC)CC)c1 [Compound 205]
Lambsquarters plant response rating (0 to 100 scale) (lambsquarters; 125 g ai/ha): 80 | Plant response rating, Lambsquarters (lambsquarters; 500 g ai/ha): 100 | Lambsquarters plant response rating (lambsquarters; 125 g ai/ha): 60 | Lambsquarters plant response rating (lambsquarters; 500 g ai/ha): 70 | Morningglory plant response rating (0 to 100 scale) (morningglory; 125 g ai/ha): 0 | Plant response rating, Morningglory (morningglory; 500 g ai/ha): 30 | Morningglory plant response rating (morningglory; 125 g ai/ha): 30 | Morningglory plant response rating (morningglory; 500 g ai/ha): 50 | Barnyardgrass plant response rating (barnyardgrass [1]): 70 | Foxtail, Giant plant response rating (0 to 100 scale) (giant foxtail; 125 g ai/ha): 50 | Plant response rating, Foxtail, Giant (giant foxtail; 500 g ai/ha): 100 | Foxtail, Giant plant response rating (giant foxtail; 125 g ai/ha): 20 | Foxtail, Giant plant response rating (giant foxtail; 500 g ai/ha): 30 | Rice plant response rating (rice): 60 | Surinam Grass plant response rating (0 to 100 scale) (Surinam grass; 125 g ai/ha): 20 | Plant response rating, Surinam Grass (Surinam grass; 500 g ai/ha): 80 | Surinam Grass plant response rating (Surinam grass; 125 g ai/ha): 20 | Surinam Grass plant response rating (Surinam grass; 500 g ai/ha): 20 | Pigweed plant response rating (0 to 100 scale) (pigweed; 125 g ai/ha): 100 | Plant response rating, Pigweed (pigweed; 500 g ai/ha): 100 | Pigweed plant response rating (pigweed; 125 g ai/ha): 40 | Pigweed plant response rating (pigweed; 500 g ai/ha): 50 | Velvetleaf plant response rating (0 to 100 scale) (velvetleaf; 125 g ai/ha): 30 | Plant response rating, Velvetleaf (velvetleaf; 500 g ai/ha): 80 | Velvetleaf plant response rating (velvetleaf; 125 g ai/ha): 20 | Velvetleaf plant response rating (velvetleaf; 500 g ai/ha): 40 | Blackgrass plant response rating (blackgrass; 125 g ai/ha): 0 | Blackgrass plant response rating (blackgrass; 500 g ai/ha): 20 | Wheat plant response rating (wheat; 125 g ai/ha): 10 | Wheat plant response rating (wheat; 500 g ai/ha): 20 | Crabgrass, Large plant response rating (0 to 100 scale) (large crabgrass; 125 g ai/ha): 60 | Plant response rating, Crabgrass, Large (large crabgrass; 500 g ai/ha): 90 | Crabgrass, Large plant response rating (large crabgrass; 125 g ai/ha): 10 | Crabgrass, Large plant response rating (large crabgrass; 500 g ai/ha): 20 | Cocklebur plant response rating (0 to 100 scale) (cocklebur; 125 g ai/ha): 10 | Plant response rating, Cocklebur (cocklebur; 500 g ai/ha): 20 | Cocklebur plant response rating (cocklebur; 125 g ai/ha): 40 | Cocklebur plant response rating (cocklebur; 500 g ai/ha): 80 | Oat, Wild plant response rating (wild oat; 125 g ai/ha): 20 | Oat, Wild plant response rating (wild oat; 500 g ai/ha): 30 | Barnyardgrass plant response rating (0 to 100 scale) (barnyardgrass [2]; 125 g ai/ha): 50 | Plant response rating, Barnyardgrass (barnyardgrass [2]; 500 g ai/ha): 90 | Barnyardgrass plant response rating (barnyardgrass [2]; 125 g ai/ha): 10 | Barnyardgrass plant response rating (barnyardgrass [2]; 500 g ai/ha): 20 | Sedge, Umbrella plant response rating [3]: 60

CCc1nc(C(C)(C)C)sc1C(=O)Nc1cccc(C(=O)NCCF)c1 [Compound 209]
Lambsquarters plant response rating (0 to 100 scale) (lambsquarters; 125 g ai/ha): 60 | Plant response rating, Lambsquarters (lambsquarters; 500 g ai/ha): 100 | Lambsquarters plant response rating (lambsquarters; 125 g ai/ha): 40 | Lambsquarters plant response rating (lambsquarters; 500 g ai/ha): 40 | Morningglory plant response rating (0 to 100 scale) (morningglory; 125 g ai/ha): 10 | Plant response rating, Morningglory (morningglory; 500 g ai/ha): 20 | Morningglory plant response rating (morningglory; 125 g ai/ha): 20 | Morningglory plant response rating (morningglory; 500 g ai/ha): 20 | Barnyardgrass plant response rating (barnyardgrass [1]): 60 | Foxtail, Giant plant response rating (0 to 100 scale) (giant foxtail; 125 g ai/ha): 30 | Plant response rating, Foxtail, Giant (giant foxtail; 500 g ai/ha): 60 | Foxtail, Giant plant response rating (giant foxtail; 125 g ai/ha): 20 | Foxtail, Giant plant response rating (giant foxtail; 500 g ai/ha): 30 | Rice plant response rating (rice): 50 | Surinam Grass plant response rating (0 to 100 scale) (Surinam grass; 125 g ai/ha): 20 | Plant response rating, Surinam Grass (Surinam grass; 500 g ai/ha): 50 | Surinam Grass plant response rating (Surinam grass; 125 g ai/ha): 20 | Surinam Grass plant response rating (Surinam grass; 500 g ai/ha): 20 | Pigweed plant response rating (0 to 100 scale) (pigweed; 125 g ai/ha): 70 | Plant response rating, Pigweed (pigweed; 500 g ai/ha): 100 | Pigweed plant response rating (pigweed; 125 g ai/ha): 30 | Pigweed plant response rating (pigweed; 500 g ai/ha): 40 | Velvetleaf plant response rating (0 to 100 scale) (velvetleaf; 125 g ai/ha): 10 | Plant response rating, Velvetleaf (velvetleaf; 500 g ai/ha): 50 | Velvetleaf plant response rating (velvetleaf; 125 g ai/ha): 20 | Velvetleaf plant response rating (velvetleaf; 500 g ai/ha): 20 | Blackgrass plant response rating (blackgrass; 125 g ai/ha): 0 | Blackgrass plant response rating (blackgrass; 500 g ai/ha): 20 | Wheat plant response rating (wheat; 125 g ai/ha): 10 | Wheat plant response rating (wheat; 500 g ai/ha): 20 | Crabgrass, Large plant response rating (0 to 100 scale) (large crabgrass; 125 g ai/ha): 40 | Plant response rating, Crabgrass, Large (large crabgrass; 500 g ai/ha): 60 | Crabgrass, Large plant response rating (large crabgrass; 125 g ai/ha): 20 | Crabgrass, Large plant response rating (large crabgrass; 500 g ai/ha): 20 | Cocklebur plant response rating (0 to 100 scale) (cocklebur; 125 g ai/ha): 10 | Plant response rating, Cocklebur (cocklebur; 500 g ai/ha): 30 | Cocklebur plant response rating (cocklebur; 125 g ai/ha): 30 | Cocklebur plant response rating (cocklebur; 500 g ai/ha): 40 | Oat, Wild plant response rating (wild oat; 125 g ai/ha): 20 | Oat, Wild plant response rating (wild oat; 500 g ai/ha): 20 | Barnyardgrass plant response rating (0 to 100 scale) (barnyardgrass [2]; 125 g ai/ha): 50 | Plant response rating, Barnyardgrass (barnyardgrass [2]; 500 g ai/ha): 90 | Barnyardgrass plant response rating (barnyardgrass [2]; 125 g ai/ha): 10 | Barnyardgrass plant response rating (barnyardgrass [2]; 500 g ai/ha): 20 | Sedge, Umbrella plant response rating [3]: 90

— patent US20060069132A1, “Azolecarboxamide herbicides” (priority 2004, published 2006)
